Source: article PMC2970562, “High-Affinity Inhibitors of Human NAD^+-Dependent 15-Hydroxyprostaglandin Dehydrogenase: Mechanisms of Inhibition and Structure-Activity Relationships” (PLoS ONE, 2010)
Like-named read-outs stand apart in the source and are kept apart here.

How the values were obtained:
human 15-PGDH [1] = target: T1, human 15-PGDH (Homo sapiens, UniProt P15428); test: Differential scanning fluorimetry (DSF), thermal stabilization; assay type: binding; details: 1 µM protein, compound 50 or 250 µM, N/A = no unfolding transition observed in DSF; for ∆Tm [°C] NAD+: with 200 µM NAD+; for ∆Tm [°C] NADH: with 200 µM NADH; for ∆Tm [°C] apo: without cofactor
T1 construct: comprising residues 3–256 of the human HPGD gene (GenBank identifier: 1203982); His6 (GHHHHHH, behind the TEV site) (C, cleaved yes); made in house; host or cells: E. coli BL21(DE3)-R3
T1 sequence (P15428 3-256): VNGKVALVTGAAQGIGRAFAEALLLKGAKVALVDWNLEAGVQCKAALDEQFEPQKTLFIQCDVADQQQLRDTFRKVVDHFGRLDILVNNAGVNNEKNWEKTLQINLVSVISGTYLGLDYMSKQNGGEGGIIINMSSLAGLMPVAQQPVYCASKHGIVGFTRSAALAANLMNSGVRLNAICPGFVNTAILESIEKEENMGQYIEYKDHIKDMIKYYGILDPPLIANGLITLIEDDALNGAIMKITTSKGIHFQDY
Protocol: A correlation between the ΔTm and the inhibitory potency has been shown in a number of protein-ligand systems, particularly for kinases [32]–[34].
Studies to assess the thermal stability of human 15-PGDH in presence of compounds were performed as described previously, with variations. Briefly, the protein was diluted to a final assay concentration of 1 µM in 100 mM Tris buffer pH 8.0, containing 0.01% Tween-20 and 1∶1000 SYPRO orange dye (Invitrogen). […] Compounds were added at a ratio of 1∶5 from appropriate stock solutions in 10% (v/v) DMSO to comprise either 50 or 250 µM final concentrations. Heat denaturation curves were recorded using a RT-PCR instrument (Mx3005p, Agilent) applying a temperature gradient of 2°C/min. […] 2.5 (ftp://ftp.sgc.ox.ac.uk/pub/biophysics) and PRISM 5.0 (GraphPad Software, Inc.).

human 15-PGDH [2] = target: T1, human 15-PGDH; test: qHTS and 24-point re-test: fluorescence assay of NAD+ reduction to NADH on PGE2 oxidation (PubChem AID 894); assay type: biochemical
Protocol: The assay was miniaturized to a 4-µL volume in 1536-well format: enzyme (3 µL) was dispensed first, followed by a pintool transfer of library compounds dissolved in DMSO. After equilibration, a substrate dispense (1 µL) initiated the enzymatic reaction (see Materials and Methods, for detailed protocol description). […] Hits associated with low-efficacy (<40% maximum inhibition), incomplete curves, as well as those displaying only a single-point inhibition at the top concentration tested were eliminated from further consideration. Similarly, the collection of real-time kinetic data allowed the autofluorescence of each compound to be evaluated by comparing the initial fluorescence read at top concentration with the mean value of uninhibited assay controls: compounds whose top-concentration initial well fluorescence exceeded six standard deviations over the mean were flagged as potential autofluorescent artifacts, [28] (see example in supplementary information Figure S1E). The complete screening and followup results are available in PubChem (PubChem Assay ID 894).
The enzymatic reaction was performed in 50 mM Tris-HCl pH 8.0, containing 0.01% Tween 20. […] The high-throughput screen was performed on a fully integrated robotic system (Kalypsys Inc, San Diego, CA) as described elsewhere. Library compounds, arrayed as seven-point inter-plate concentration series, were screened from the lowest (3.5 nM) to the highest (57.5 µM) concentration, with plates containing DMSO only, serving to note any systematic drifts in the signal, interspersed evenly throughout the screen (approximately every 50 plates). Briefly, 3 µL of reagents were dispensed into 1536-well Greiner black solid-bottom assay plates using integrated nanoliter solenoid-technology dispensers. Compounds and controls (23 nL) were transferred via Kalypsys pintool equipped with 1,536-pin array (10-nL slotted pins; V&P Scientific, Palo Alto, CA). After a 15-minute incubation (to allow for interaction between compound and enzyme), a 1-µL substrate addition step initiated the reaction. Kinetic data were collected on a ViewLux High-throughput CCD imager (Perkin-Elmer) equipped with standard UV fluorescence optics (exc. 340 nm, em. 450 nm).
Starting fluorescence intensity and the change in fluorescence over the two-minute initial rate period were recorded for every well. Screening data were normalized against no-enzyme (64 wells, columns 3 and 4) and no-compound (32 wells located in column 1) controls, and concentration-response relationships were derived as described previously. A four-parameter Hill equation [47] was fitted to the concentration-response data using publicly available algorithms (http://www.ncgc.nih.gov/pub/openhts/curvefit/).

[3] = potency in 24-point titrations on re-test, 20 nM 15-PGDH, 1 mM NAD+, 30 µM PGE2, pH 8.0, read-out: qHTS IC50

Compound | ∆Tm [°C] NAD+ (human 15-PGDH [1]) | ∆Tm [°C] NADH (human 15-PGDH [1]) | ∆Tm [°C] apo (human 15-PGDH [1]) | IC50 (human 15-PGDH [2]; [3]) | IC50 (human 15-PGDH [2]; read-out: qHTS IC50) | IC50 (human 15-PGDH [2]; control inhibitor, 16-point dilution series in duplicate on every qHTS plate, read-out: average IC50)
O=C(c1ccc(N2C(=O)C3CC=C(Cl)CC3C2=O)cc1)N1CCCCC1 (stereo not shown) [Compound 1] | 3.0 °C | 6.1 °C | -0.1 °C | 251 nM | – | –
C=C(C(=O)OC)C1CCC2(C)C(OC(=O)C(Cc3ccc(O)cc3)OC(=O)C(O)C(C)C)CCC(O)(COC3OC(CO)C(O)C(O)C3O)C2C1O (stereo not shown) [Compound 2] | 1.7 °C | 6.0 °C | -0.6 °C | 794 nM | – | –
CCCCCCOCCCCc1ccc(-c2ccc(OCCCCCCC3CC3)nc2)nn1 [Compound 3] | 2.1 °C | 6.7 °C | -0.6 °C | 562 nM | – | –
COc1ccccc1C(=O)Nc1ccc(C(=O)N2CCCC2)cc1 [Compound 4] | 2.2 °C | 4.7 °C | 0.3 °C | 1000 nM | – | –
CC1CCN(C(=O)c2ccc(CSc3ccc(Cl)cc3)cc2)CC1 [Compound 5] | 2.3 °C | 7.1 °C | -0.8 °C | – | 631 nM | –
O=C(c1ccc(COc2ccccc2Br)cc1)N1CCCCC1 [Compound 7] | 7.1 °C | 10.6 °C | -0.1 °C | – | 89 nM | –
C=CCN1C(=O)[C@@H](CC(=O)Nc2cc(C)ccc2C)SC1=Nc1cc(C)cc(C)c1 [Compound 8] | 3.0 °C | 6.6 °C | -1.4 °C | 200 nM | – | –
O=C(O)CC1(CO)CC1 [Compound 9] | 2.2 °C | 7.8 °C | -1.1 °C | 224 nM | – | –
CC1CCCN(C(=O)c2ccc(COc3ccccc3Br)cc2)C1 (stereo not shown) [Compound 11] | 3.8 °C | 10.6 °C | -0.4 °C | 126 nM | – | –
CN(Cc1cccc(Cl)c1)c1ccc(S(C)(=O)=O)cc1S(C)(=O)=O [Compound 12] | 2.2 °C | 7.1 °C | -1.6 °C | 355 nM | – | –
C=CCOC12Oc3ccc(Oc4ccc(OC)c(C=O)c4)cc3C3C(CCCCO)C(CCCCO)C=C(C(=NOCC)CC1N(CCC)C(=O)OCCOCc1ccccc1)C32 (stereo not shown) [Compound 14] | 3.2 °C | 7.8 °C | -1.0 °C | 251 nM | – | –
Cc1cc(NC(=O)COC(=O)c2cccc(S(=O)(=O)NC(C)(C)C)c2)no1 [Compound 16] | 3.5 °C | 7.8 °C | -1.8 °C | 224 nM | – | –
C[C@H]1CCCCN1C(=O)CSc1nnc(-c2ccccc2F)o1 [Compound 17] | 3.3 °C | 4.4 °C | 0.1 °C | 708 nM | – | –
Cc1ccccc1C(=O)N1CCc2ccccc2C1 [Compound 18] | 1.5 °C | 2.2 °C | -1.1 °C | 2510 nM | – | –
COC(=O)c1cc(CNC(=O)C2(c3ccc(Cl)cc3)CC2)ccc1OC [Compound 20] | 3.1 °C | 7.9 °C | 0.3 °C | 224 nM | – | –
CCCC(NC(=O)Cn1c(-c2cccs2)n[nH]c1=S)c1ccccc1 (stereo not shown) [Compound 23] | 1.2 °C | 1.6 °C | -0.4 °C | 2240 nM | – | –
CN(C)C(=O)C(NCCc1c[nH]c2ccccc12)c1ccccc1 (stereo not shown) [Compound 29] | 2.7 °C | 8.4 °C | -0.1 °C | 501 nM | – | –

Compound | ∆Tm [°C] NAD+ (human 15-PGDH [1]) | ∆Tm [°C] NADH (human 15-PGDH [1]) | ∆Tm [°C] apo (human 15-PGDH [1]) | IC50 (human 15-PGDH [2]; [3]) | IC50 (human 15-PGDH [2]; read-out: qHTS IC50) | IC50 (human 15-PGDH [2]; control inhibitor, 16-point dilution series in duplicate on every qHTS plate, read-out: average IC50)
COc1ccccc1NS(=O)(=O)c1cc(C(=O)N2CCC2)ccc1C [Compound 30] | 2.4 °C | 6.4 °C | 0.2 °C | 562 nM | – | –
CCCCCCCCNCCOCCOCCOCCOCCNCCCCCCCC [Compound 31] | 1.1 °C | 4.8 °C | -0.1 °C | 3980 nM | – | –
CCCC(C(=O)O)C(C)(C)O (stereo not shown) [Compound 32] | 3.9 °C | 9.6 °C | -1.4 °C | 282 nM | – | –
CCCC(CCCCCCC(=O)c1cn(CCCC(=O)OCC)c2ccccc12)c1ccc(CC(C)C)cc1 (stereo not shown) [Compound 34] | 2.0 °C | 6.4 °C | 0.1 °C | 794 nM | – | –
COc1ccc(C2C(C(=O)O)c3ccccc3C(=O)N2Cc2ccccc2)cc1 (stereo not shown) [Compound 35] | 1.2 °C | 2.2 °C | -0.1 °C | 7080 nM | – | –
CCN(CC)C(=O)c1sc2nc(-c3cccs3)cc(-c3ccc(Cl)cc3)c2c1N [Compound 36] | 0.9 °C | 2.9 °C | -1.5 °C | 10000 nM | – | –
Cc1cc([N+](=O)[O-])c2c(c1C)[C@@H]1C=CC[C@@H]1C(c1cccc(Cl)c1)N2 (stereo partly shown) [Compound 37] | 1.1 °C | 5.0 °C | -2.0 °C | 2000 nM | – | –
COc1ccc(NS(=O)(=O)Cc2ccccc2Cl)cc1 [Compound 42] | 7.5 °C | 4.8 °C | -0.5 °C | 316 nM | – | –
COCCNC(=O)c1cc2oc3ccccc3c2n1C [Compound 45] | 2.7 °C | 2.9 °C | -1.9 °C | 1580 nM | – | –
Cc1ccc2cc3c(N)c(C(=O)N4CCC(C)CC4)sc3nc2c1 [Compound 48] | 0.5 °C | 3.3 °C | -0.6 °C | 1000 nM | – | –
CC(C)(C)OC(=O)NC(Cc1csc2ccccc12)C(=O)CCc1cc(C(F)(F)F)cc(C(F)(F)F)c1 (stereo not shown) [Compound 50] | 1.9 °C | 1.7 °C | -1.9 °C | 6310 nM | – | –
Cc1ccc(C2=NC(=CN3CCOCC3)C(=O)O2)cc1 [Compound 54] | 6.0 °C | 3.9 °C | -1.5 °C | 2510 nM | – | –
Brc1ccc(-c2cc3n(n2)CCc2nc4ccccc4n2-3)cc1 [Compound 55] | 3.7 °C | 4.7 °C | 0.1 °C | 1120 nM | – | –
CC(O)CN(C)C(C)N(CCN(C)C)CCN(C)C (stereo not shown) [Compound 56] | 6.1 °C | 0.4 °C | 0.0 °C | 1000 nM | – | –
COc1ccc(C(=O)OCC(=O)Nc2c(C)cccc2C)cc1S(=O)(=O)N(C)C [Compound 57] | 9.2 °C | 1.6 °C | -0.3 °C | 2240 nM | – | –
CC1(C)Oc2c(N=C=O)ccc(Cl)c2C1=O [Compound 87] | – | – | – | 3160 nM | – | –
O=C1Nc2ccc(I)cc2/C1=C/c1cc(Br)c(O)c(Br)c1 [GW5074, reference compound] | – | – | – | – | – | 10400 nM
